Measurements from patent US20130281313A1, “PROGNOSTIC AND/OR PREDICTIVE BIOMARKERS AND BIOLOGICAL APPLICATIONS THEREOF” (INSTITUT GUSTAVE ROUSSY, priority 2010, published 2013).

Experiments:
A549 cells = assay: Genome-wide siRNA screen: residual proliferation (WST-1) of siRNA-transfected cells upon CDDP; assay type: cell-based, human; details: 50 μM CDDP for 24 hours
Protocol: High-throughput operations were carried out by means of a Microlab STAR automated workstation (Hamilton, Reno, USA) placed under a class II safety cabinet. In all screening rounds, each siRNA was tested in triplicates that were distributed to three different plates. Prior to cell seeding, transfection complexes were individually prepared in a V-bottomed 96-well deep well plate. In brief, each siRNA (as retrieved from the Human Whole Genome siRNA Set Version 1.0) was dissolved in a total volume of 122.5 μL serum-free phenol-red free DMEM/F12 medium (final concentration=10 nM, conditions for 7 wells). Similarly, an appropriate amount of HiPerFect® transfection reagent (Qiagen) was diluted in serum-free phenol-red free DMEM/F12 medium (0.25 μL per well). […] After additional 24 h, the 3 plates that were not subjected to cell death induction were assessed for both plasma membrane breakdown and residual cell proliferation, while the 3 plates that were treated with cell death-inducing stimuli were monitored for residual proliferation only (see next section). […]
In the second round of screen (4 siRNAs×1,000 transcripts=4,000 siRNAs), the effects of individual siRNAs were analyzed and scored as described above. […]

CDDP-GG DNA adducts = assay: Immunofluorescence microscopy for the detection of CDDP-GG DNA adducts; assay type: cell-based, human; details: A549 cells, 25 μM CDDP alone or combined with PN
Protocol: Immunofluorescence staining and measurement of specific DNA platination products was performed essentially as previously described {Dzagnidze, 2007; Liedert, 2006}, with minor modifications. Briefly, cells were spotted onto ImmunoSelect adhesion slides (Squarix GmbH, Marl, Germany), fixed overnight in ice-cold methanol, and subjected to proteolytic digestion with 60 μg/mL pepsin (100 μL per spot, 10 min, 37° C., in a moist chamber) and 40 μg/mL proteinase K (100 μL per spot, 10 min, 37° C., in a moist chamber). Upon blockage of unspecific binding sites with 5% (w/v) non-fat powdered milk in PBS, slides were incubated with a rat primary antibody that specifically recognizes CDDP-GG DNA adducts (RC-18) (at 37° C. for 2 h or at 4° C. overnight). […] Images were acquired on an Axioplan fluorescence microscope (Carl Zeiss GmbH, Göttingen, Germany) coupled to a C4880 CCD camera (Hamamatsu Photonics, Herrsching, Germany). For the detection of CDDP-GG DNA adducts by immunofluorescence microscopy, fluorescence signals were measured by quantitative digital image analysis with the ACAS 6.0 Cytometry Analysis System (ACAS II, Asbach, Germany). The levels of adducts in each sample were calculated as arbitrary fluorescence units (AFUs), upon normalization of integrated antibody-derived fluorescence from 200 nuclei/sample to the corresponding DNA content. […]

Row | SMILES | cells killed (A549 cells) [%] | CDDP-DNA adducts (CDDP-GG DNA adducts)
1 | N.N.[Cl][Pt][Cl] [CDDP, cis-diammineplatinum(II) dichloride] | ~45 | –
2 | Cc1ncc(CO)c(CO)c1O [PN, pyridoxine] | – | significantly increased CDDP-DNA adducts
